Reference: patent US20240158446A1, “CYCLIC COMPOUND HAVING SELECTIVE INHIBITORY ACTION ON KRAS OVER HRAS AND NRAS” (CHUGAI SEIYAKU KABUSHIKI KAISHA, priority 2021, published 2024)

Key:
[1] = target: GDP-bound NRAS wild-type protein (Homo sapiens, UniProt P01111); test: Binding to NRAS by surface plasmon resonance (SPR), Single Cycle Kinetics; conditions: for NRAS/KRAS (ratio of KD value with respect to GDP-bound NRAS wild-type protein to KD value with respect to KRAS): SPR KD ratio NRAS/KRAS, class symbols; for NRAS/KRAS (ratio of KD value for NRAS to KD value for KRAS): SPR, GDP-bound NRAS wild-type protein vs GDP-bound KRAS wild-type protein
Chain of GDP-bound NRAS wild-type protein (P01111 whole entry): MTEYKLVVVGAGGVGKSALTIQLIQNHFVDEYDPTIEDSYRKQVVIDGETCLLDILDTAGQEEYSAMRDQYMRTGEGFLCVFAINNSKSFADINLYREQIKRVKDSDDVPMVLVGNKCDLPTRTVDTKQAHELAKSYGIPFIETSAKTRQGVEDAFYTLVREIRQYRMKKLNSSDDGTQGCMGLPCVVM

[2] = target: GDP-bound HRAS wild-type protein (Homo sapiens, UniProt P01112); test: Binding to HRAS by surface plasmon resonance (SPR), Single Cycle Kinetics; conditions: for HRAS/KRAS (ratio of KD value with respect to GDP-bound HRAS wild-type protein to KD value with respect to KRAS): SPR KD ratio HRAS/KRAS, class symbols; for HRAS/KRAS (ratio of KD value for HRAS to KD value for KRAS): SPR, GDP-bound HRAS wild-type protein vs GDP-bound KRAS wild-type protein
Chain of GDP-bound HRAS wild-type protein (P01112 whole entry): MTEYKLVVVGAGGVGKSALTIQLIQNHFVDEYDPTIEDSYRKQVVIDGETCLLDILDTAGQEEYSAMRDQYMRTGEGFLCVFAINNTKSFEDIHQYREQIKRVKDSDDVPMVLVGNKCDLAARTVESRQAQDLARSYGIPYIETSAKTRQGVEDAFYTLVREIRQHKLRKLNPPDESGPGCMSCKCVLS

SMILES | NRAS/KRAS (ratio of KD value with respect to GDP-bound NRAS wild-type protein to KD value with respect to KRAS) [1] | HRAS/KRAS (ratio of KD value with respect to GDP-bound HRAS wild-type protein to KD value with respect to KRAS) [2] | NRAS/KRAS (ratio of KD value for NRAS to KD value for KRAS) ([1]; KD ratio class) | HRAS/KRAS (ratio of KD value for HRAS to KD value for KRAS) ([2]; KD ratio class) | also measured
CCO[C@@H]1C[C@H]2C(=O)NC3(CC(C)(C)C3)C(=O)N(C)[C@@H](C(CC)CC)C(=O)N(C)[C@H](C(=O)N(C)C)CC(=O)N(C)[C@H]3CC/C=C/c4ccc(cc4)C[C@@H](C(=O)N(C)CC(=O)N[C@@H](CCc4ccc(Cl)c(Cl)c4)C(=O)N2C1)N1CC/C=C\C[C@@H](C1=O)N(C)C(=O)CN(C)C(=O)[C@H]([C@@H](C)CC)NC3=O [PP2589] | AA (a compound having 20 or more is denoted as AA) | A (a compound having 10 or more and less than 20 is denoted as A) |  |  | 
CCO[C@@H]1C[C@H]2C(=O)NC3(CCC3)C(=O)N(C)[C@@H](C(CC)CC)C(=O)N(C)[C@H](C)CC(=O)N(C)[C@@H](CC3CC3)C(=O)N[C@@H]([C@@H](C)CC)C(=O)N(C)CC(=O)N(C)[C@H]3C/C=C\CCN(C3=O)[C@@H](Cc3ccc(F)cc3C)C(=O)N(C)CC(=O)N[C@@H](CCc3cc(F)c(C(F)(F)F)c(F)c3)C(=O)N2C1 [PP1520] |  |  | A (a compound having 10 or more and less than 20 is denoted as A) | A (a compound having 10 or more and less than 20 is denoted as A) | 
CCC[C@H]1C(=O)N[C@@H]([C@@H](C)CC)C(=O)N(C)CC(=O)N(C)[C@H]2C/C=C\CCN(C2=O)[C@@H](Cc2ccc(C(F)(F)F)cc2)C(=O)N(C)CC(=O)N[C@@H](CCc2cc(C)c(C3CC3)c(C)c2)C(=O)N2C[C@H](OCC)C[C@H]2C(=O)NC2(CC(C)(C)C2)C(=O)N(C)[C@@H](C2CCCC2)C(=O)N(C)[C@H](C(=O)N(C)C)CC(=O)N1C [PP2863] | A (a compound having 10 or more and less than 20 is denoted as A) | A (a compound having 10 or more and less than 20 is denoted as A) |  |  | 
CCO[C@@H]1C[C@H]2C(=O)NC3(CCC3)C(=O)N(C)[C@@H](C(CC)CC)C(=O)N(C)[C@H](C(=O)N(C)C)CC(=O)N(C)[C@@H](CC3CC3)C(=O)N[C@@H]([C@@H](C)CC)C(=O)N(C)CC(=O)N(C)[C@H]3C/C=C\CCN(C3=O)[C@@H](Cc3ccc(F)cc3C)C(=O)N(C)CC(=O)N[C@@H](CCc3cc(F)c(C(F)(F)F)c(F)c3)C(=O)N2C1 [PP1514] |  |  | A (a compound having 10 or more and less than 20 is denoted as A) | A (a compound having 10 or more and less than 20 is denoted as A) | 
CCO[C@@H]1C[C@H]2C(=O)NC3(CC(C)(C)C3)C(=O)N(C)[C@@H](C3CCCC3)C(=O)N(C)[C@H](C(=O)N(C)C)CC(=O)N(C)[C@@H](CC(C)C)C(=O)N[C@@H]([C@@H](C)CC)C(=O)N(C)CC(=O)N(C)[C@H]3C/C=C\CCN(C3=O)[C@@H](Cc3ccc(C)cc3F)C(=O)N(C)CC(=O)N[C@@H](CCc3ccc(C(F)(F)F)c(OC)c3)C(=O)N2C1 [PP2688] | A (a compound having 10 or more and less than 20 is denoted as A) | B (a compound having 3 or more and less than 10 is denoted as B) |  |  | 
CCO[C@@H]1C[C@H]2C(=O)NC3(CCC3)C(=O)N(C)[C@@H](C3CCCC3)C(=O)N(C)[C@H](C(=O)N(C)CC)CC(=O)N(C)[C@@H](CC(C)C)C(=O)N[C@@H]([C@@H](C)CC)C(=O)N(C)CC(=O)N(C)[C@H]3C/C=C\CCN(C3=O)[C@@H](Cc3ccc(C(F)(F)F)cc3)C(=O)N(C)CC(=O)N[C@@H](CCc3ccc(Cl)c(Cl)c3)C(=O)N2C1 [PP2845] | AA (a compound having 20 or more is denoted as AA) | A (a compound having 10 or more and less than 20 is denoted as A) |  |  | 
CCC(CC)[C@H]1C(=O)N(C)[C@H](C(=O)N(C)C)CC(=O)N(C)[C@@H](COC)C(=O)N[C@@H]([C@@H](C)CC)C(=O)N(C)CC(=O)N(C)[C@H]2C/C=C\CCN(C2=O)[C@@H](Cc2ccc(C)cc2)C(=O)N(C)CC(=O)N[C@@H](CCc2ccc(Cl)c(Cl)c2)C(=O)N2CCCCC[C@H]2C(=O)NC2(CC(C)(C)C2)C(=O)N1C [PP2974] |  |  |  |  | NRAS/KRAS (ratio of KD value for NRAS to KD value for KRAS) [1]: A (a compound having 10 or more and less than 20 is denoted as A); HRAS/KRAS (ratio of KD value for HRAS to KD value for KRAS) [2]: A (a compound having 10 or more and less than 20 is denoted as A)
CCCC[C@H]1C(=O)N[C@@H]([C@@H](C)CC)C(=O)N(C)CC(=O)N(C)[C@H]2C/C=C\CCN(C2=O)[C@@H](Cc2ccc(C(F)(F)F)cc2)C(=O)N(C)CC(=O)N[C@@H](CCc2cc(F)c(C(F)(F)F)c(F)c2)C(=O)N2C[C@H](OCC)C[C@H]2C(=O)NC2(CCC2)C(=O)N(C)[C@@H](C2CCCC2)C(=O)N(C)[C@H](C(=O)N(CC)CC)CC(=O)N1C [PP1576] |  |  | AA (a compound having 20 or more is denoted as AA) | A (a compound having 10 or more and less than 20 is denoted as A) | 
